Measurements: paper PMC6514978, “Synthesis, Antibacterial Activities, Mode of Action and Acute Toxicity Studies of New Oxazolidinone-Fluoroquinolone Hybrids” (Molecules, 2019)
Values after ≈ are worked out from the molar mass of the structure shown.

Legend:
MRSA (13B262) = assay: MIC, broth microdilution (CLSI), clinical isolate; type: cell-based; conditions: Staphylococcus aureus
Source text: (§1) 6 standard strains and 3 clinical isolates were used to the preliminary evaluation of in vitro antibacterial activities of oxazolidinone-fluoroquinolone hybrids. For the further evaluation of hybrids OBP-4 and OBP-5, 263 clinical isolates including S. aureus (46), S. haemolyticus(32), S. epidermidis (10), E. faecalis (72), E. faecium (47), S. pneumoniae (13), H. parasuis (34), S. suis (9), and 8 resistant strains including MRSA, MRSE, CIP-resistant S. aureus and S. haemolyticus, VAN and quinolone-resistant S. pneumoniae, LZD-resistant E. faecalis, LZD/VAN and quinolone-resistant E. faecium were collected and tested.
(§2) Susceptibility testing of oxazolidinone-fluoroquinolone hybrids against various bacteria was performed by the broth microdilution method as outlined by the Clinical and Laboratory Standards Institute (CLSI). Three types of media, including cation-adjusted Mueller Hinton broth, Haemophilus Test Medium and cation-adjusted Mueller Hinton broth that contained 3%–5% lysed horse blood, were used to culture the corresponding bacteria. All compounds including comparator drugs were dissolved in an appropriate solvent at a concentration of 2.048 mg/mL and then serially diluted two-fold to provide the required concentrations. A final inoculum of 5 × 10^5 CFU/mL was used and plates were read after incubation for 16–24 h at 35 °C. […] Standard quality control strains (ATCC) were included throughout. Each determination was repeated in triplicate.

[1] = test system: S. agalactiae^R (13B317), levofloxacin-resistant S. agalactiae; assay: MIC, broth microdilution (CLSI), clinical isolate; type: cell-based; conditions: Streptococcus agalactiae; levofloxacin-resistant S. agalactiae (13B317)
Source text: as §1, §2

E. coli (ATCC25922) = assay: MIC, broth microdilution (CLSI), standard strain; type: cell-based; conditions: Escherichia coli; E. coli (ATCC25922); read-out: MIC
Source text: as §1, §2

E. faecalis (ATCC29212) = assay: MIC, broth microdilution (CLSI), standard strain; type: cell-based; conditions: Enterococcus faecalis; E. faecalis (ATCC29212); read-out: MIC
Source text: as §1, §2

[2] = test system: H. influenzae (ATCC49247); assay: MIC, broth microdilution (CLSI), standard strain; type: cell-based; conditions: Haemophilus influenzae
Source text: as §1, §2

[3] = test system: P. Aeruginosa (ATCC27853); assay: MIC, broth microdilution (CLSI), standard strain; type: cell-based; conditions: Pseudomonas aeruginosa; P. Aeruginosa (ATCC27853); read-out: MIC
Source text: as §1, §2

S. aureus (ATCC29213) = assay: MIC, broth microdilution (CLSI), standard strain; type: cell-based; conditions: Staphylococcus aureus
Source text: as §1, §2

[4] = test system: S. pneumoniae (ATCC49619); assay: MIC, broth microdilution (CLSI), standard strain; type: cell-based; conditions: Streptococcus pneumoniae
Source text: as §1, §2

[5] = test system: S. epidermidis (10) clinical isolates; assay: Susceptibility of clinical isolates (MIC); type: cell-based, Staphylococcus epidermidis
Summary of the method: (§3)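 Broth microdilution per CLSI in cation-adjusted Mueller Hinton broth, Haemophilus Test Medium, or cation-adjusted MHB with 3%–5% lysed horse blood, as suited to each organism. Final inoculum 5 × 10^5 CFU/mL; plates read after 16–24 h at 35 °C. ATCC QC strains included; triplicate determinations.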

[6] = test system: S. suis (9) clinical isolates; assay: Susceptibility of clinical isolates (MIC); type: cell-based, Streptococcus suis; conditions: for Cumulative % of strains inhibited at MIC / No. of strains inhibited at MIC: S. suis (9)
Summary of the method: as §3

[7] = test system: S. pneumoniae (13) clinical isolates; assay: Susceptibility of clinical isolates (MIC); type: cell-based, Streptococcus pneumoniae; conditions: for Cumulative % of strains inhibited at MIC / No. of strains inhibited at MIC: S. pneumoniae (13)
Summary of the method: as §3

[8] = test system: E. faecium (47) clinical isolates; assay: Susceptibility of clinical isolates (MIC); type: cell-based, Enterococcus faecium; conditions: for Cumulative % of strains inhibited at MIC / No. of strains inhibited at MIC: E. faecium (47)
Summary of the method: as §3

[9] = test system: H. parasuis (34) clinical isolates; assay: Susceptibility of clinical isolates (MIC); type: cell-based, Haemophilus parasuis; conditions: for Cumulative % of strains inhibited at MIC / No. of strains inhibited at MIC: H. parasuis (34)
Summary of the method: as §3

MRSE = assay: MIC against drug-resistant strain; type: cell-based, S. epidermidis; conditions: Staphylococcus epidermidis, read-out: MIC
Summary of the method: as §3

CIP-resistant S. aureus = assay: MIC against drug-resistant strain; type: cell-based; conditions: Staphylococcus aureus; S. aureus, CIP-resistant; read-out: MIC
Summary of the method: as §3

[10] = test system: CIP-resistant S. haemolyticus; assay: MIC against drug-resistant strain; type: cell-based; conditions: Staphylococcus haemolyticus; S. haemolyticus, CIP-resistant; read-out: MIC
Summary of the method: as §3

[11] = test system: LZD and quinolone-resistant E. faecium; assay: MIC against drug-resistant strain; type: cell-based; conditions: Enterococcus faecium; E. faecium, LZD and quinolone-resistant; read-out: MIC
Summary of the method: as §3

MRSA = assay: MIC against drug-resistant strain; type: cell-based; conditions: Staphylococcus aureus, read-out: MIC
Summary of the method: as §3

[12] = test system: VAN and quinolone-resistant E. faecium; assay: MIC against drug-resistant strain; type: cell-based; conditions: Enterococcus faecium; E. faecium, VAN and quinolone-resistant; read-out: MIC
Summary of the method: as §3

[13] = test system: VAN and quinolone-resistant S. pneumoniae; assay: MIC against drug-resistant strain; type: cell-based; conditions: Streptococcus pneumoniae; S. pneumoniae, VAN and quinolone-resistant; read-out: MIC
Summary of the method: as §3

`CC1Sc2c(C(=O)O)c(=O)c3cc(F)c(N4CCC(O)(COc5ccc(N6C[C@H](CO)OC6=O)cc5F)CC4)cc3n21` (stereo partly shown) [OBP-5] showed an MIC (MRSA (13B262)) of 0.5 mg/L (≈ 0.828 µM), an MIC [1] of 0.031 mg/L (≈ 0.0514 µM) and an MIC (E. coli (ATCC25922)) of 4 mg/L (≈ 6.63 µM). The MIC (E. faecalis (ATCC29212)) was 1 mg/L (≈ 1.66 µM), the MIC [2] was 0.25 mg/L (≈ 0.414 µM) and the MIC [3] was 64 mg/L (≈ 106 µM). For the same compound, the MIC (S. aureus (ATCC29213)) was 0.25 mg/L (≈ 0.414 µM), the MIC [4] was 0.062 mg/L (≈ 0.103 µM) and the “No. of strains inhibited at MIC” value ([5]; S. epidermidis (10), MIC 0.125 µg/mL) was 2. For the same compound, the “Cumulative % of strains inhibited at MIC” value ([5]; S. epidermidis (10), MIC ≤[…]) was 80.0%, the “No. of strains inhibited at MIC” value ([5]; S. epidermidis (10), MIC ≤[…]) was 8 and the MIC50 ([5]; Staphylococcus epidermidis, S. epidermidis, 10 clinical isolates, read-out: MIC50) was at most 0.0625 mg/L. For the same compound, the MIC90 ([5]; Staphylococcus epidermidis, S. epidermidis, 10 clinical isolates, read-out: MIC90) was 0.125 mg/L (≈ 0.207 µM), the MIC ([5]; Staphylococcus epidermidis, S. epidermidis, 10 clinical isolates, read-out: MIC Range) was 0.0625 to 0.125 mg/L (≈ 0.104 to 0.207 µM) and the “Cumulative % of strains inhibited at MIC” value ([6]; MIC 0.125 µg/mL) was 88.9%. The “No. of strains inhibited at MIC” value ([6]; MIC 0.125 µg/mL) was 3, the “Cumulative % of strains inhibited at MIC” value ([6]; MIC 2 µg/mL) was 100% and the “No. of strains inhibited at MIC” value ([6]; MIC 2 µg/mL) was 1. The “Cumulative % of strains inhibited at MIC” value ([6]; MIC ≤[…]) was 55.6%, the “No. of strains inhibited at MIC” value ([6]; MIC ≤[…]) was 5 and the MIC50 ([6]; Streptococcus suis, S. suis, 9 clinical isolates, read-out: MIC50) was at most 0.0625 mg/L. For the same compound, the MIC90 ([6]; Streptococcus suis, S. suis, 9 clinical isolates, read-out: MIC90) was 0.125 mg/L (≈ 0.207 µM), the MIC ([6]; Streptococcus suis, S. suis, 9 clinical isolates, read-out: MIC Range) was 0.0625 to 2 mg/L (≈ 0.104 to 3.31 µM) and the “Cumulative % of strains inhibited at MIC” value ([7]; MIC 0.125 µg/mL) was 84.6%. For the same compound, the “No. of strains inhibited at MIC” value ([7]; MIC 0.125 µg/mL) was 4, the “Cumulative % of strains inhibited at MIC” value ([7]; MIC […]) was 100.0% and the “No. of strains inhibited at MIC” value ([7]; MIC […]) was 2. The “Cumulative % of strains inhibited at MIC” value ([7]; MIC ≤[…]) was 53.8%, the “No. of strains inhibited at MIC” value ([7]; MIC ≤[…]) was 7 and the “MIC Range” value ([7]; S. pneumoniae, 13 clinical isolates) was at most 0.0625 to 0.25 mg/L. The MIC50 ([7]; Streptococcus pneumoniae, S. pneumoniae, 13 clinical isolates, read-out: MIC50) was at most 0.0625 mg/L, the MIC90 ([7]; Streptococcus pneumoniae, S. pneumoniae, 13 clinical isolates, read-out: MIC90) was 0.25 mg/L (≈ 0.414 µM) and the “Cumulative % of strains inhibited at MIC” value ([8]; MIC 0.125 µg/mL) was 21.3%. For the same compound, the “No. of strains inhibited at MIC” value ([8]; MIC 0.125 µg/mL) was 7, the “Cumulative % of strains inhibited at MIC” value ([8]; MIC 0.5 µg/mL) was 97.9% and the “No. of strains inhibited at MIC” value ([8]; MIC 0.5 µg/mL) was 3. The “Cumulative % of strains inhibited at MIC” value ([8]; MIC 1 µg/mL) was 100.0%, the “No. of strains inhibited at MIC” value ([8]; MIC 1 µg/mL) was 1 and the “Cumulative % of strains inhibited at MIC” value ([8]; MIC […]) was 91.5%. The “No. of strains inhibited at MIC” value ([8]; MIC […]) was 33, the “Cumulative % of strains inhibited at MIC” value ([8]; MIC ≤[…]) was 6.4% and the “No. of strains inhibited at MIC” value ([8]; MIC ≤[…]) was 3. The “fold higher activity than comparator agents” value ([8]; E. faecium clinical isolates) was 16- to 128 fold, the “MIC Range” value ([8]; E. faecium, 47 clinical isolates) was at most 0.0625 to 1 mg/L and the MIC50 ([8]; Enterococcus faecium, E. faecium, 47 clinical isolates, read-out: MIC50) was 0.25 mg/L (≈ 0.414 µM). For the same compound, the MIC90 ([8]; Enterococcus faecium, E. faecium, 47 clinical isolates, read-out: MIC90) was 0.25 mg/L (≈ 0.414 µM), the MIC50 ([9]; Glaesserella parasuis, H. parasuis, 34 clinical isolates, read-out: MIC50) was 0.5 mg/L (≈ 0.828 µM) and the MIC90 ([9]; Glaesserella parasuis, H. parasuis, 34 clinical isolates, read-out: MIC90) was 2 mg/L (≈ 3.31 µM). For the same compound, the “Cumulative % of strains inhibited at MIC” value ([9]; MIC 0.125 µg/mL) was 17.6%, the “No. of strains inhibited at MIC” value ([9]; MIC 0.125 µg/mL) was 1 and the “Cumulative % of strains inhibited at MIC” value ([9]; MIC 0.5 µg/mL) was 47.1%. The “No. of strains inhibited at MIC” value ([9]; MIC 0.5 µg/mL) was 6, the “Cumulative % of strains inhibited at MIC” value ([9]; MIC 1 µg/mL) was 67.6% and the “No. of strains inhibited at MIC” value ([9]; MIC 1 µg/mL) was 7. For the same compound, the “Cumulative % of strains inhibited at MIC” value ([9]; MIC 2 µg/mL) was 97.1%, the “No. of strains inhibited at MIC” value ([9]; MIC 2 µg/mL) was 10 and the “Cumulative % of strains inhibited at MIC” value ([9]; MIC 4 µg/mL) was 100.0%. For the same compound, the “No. of strains inhibited at MIC” value ([9]; MIC 4 µg/mL) was 1, the “Cumulative % of strains inhibited at MIC” value ([9]; MIC […]) was 29.4% and the “No. of strains inhibited at MIC” value ([9]; MIC […]) was 4. For the same compound, the “Cumulative % of strains inhibited at MIC” value ([9]; MIC ≤[…]) was 14.7%, the “No. of strains inhibited at MIC” value ([9]; MIC ≤[…]) was 5 and the “MIC Range” value ([9]; H. parasuis, 34 clinical isolates) was at most 0.0625 to 4 mg/L. It also gave an MIC (MRSE) of at most 0.0625 mg/L, an MIC (CIP-resistant S. aureus) of at most 0.0625 mg/L and an MIC [10] of at most 0.0625 mg/L. The MIC [11] was 0.125 mg/L (≈ 0.207 µM), the MIC (MRSA) was 0.125 mg/L (≈ 0.207 µM) and the MIC [12] was 0.25 mg/L (≈ 0.414 µM). The MIC [13] was at most 0.0625 mg/L.
